From patent publication US20150150842A1, “DESETHYLAMIODARONE COMPOSITIONS” (priority 2012, published 2015)
Several values for one entry are separate records, joined by “and”; a condition that tells them apart may be missing. Identical values can stand only once.

Experiments:
[1] = system: conscious dogs with structural atrial remodelling; experiment: Chronic rapid atrial pacing induced atrial remodelling and burst-induced atrial fibrillation in conscious dogs
Description: The experiments were performed on chronically instrumented Beagle dogs of both sexes, weighing 12-13 kg. The animals were subjected to the following surgery under general anaesthesia: pacemakers were implanted into bilateral subcutaneous pockets in the neck area (Logos, Karios; Biotronik Hungaria Ltd.) and were attached to pacemaker electrodes implanted into the right ventricle and right atrium. Radiofrequency catheter ablation was performed in each animal to achieve third degree atrioventricular (AV) block so that during subsequent rapid atrial pacing (400/min) the ventricles are protected from high heart rates. […] On the seventh day after surgery, following the measurement of right atrial effective refractory period the atrial pacemaker was set to a frequency of 400/min to achieve atrial electrical and structural remodelling. Right atrial rapid pacing is necessary to maintain for 3 months in this model to obtain complete remodeling of the atria signalled by the reduction of right atrial effective refractory period below 80 ms.
The body weight of animals was monitored for strict adherence to the desired dose.
The right atrial effective refractory period (ERP) was measured using the S1 -S2 protocol at cycle lengths of 150 and 300 ms. In addition ERP monitoring, 10-second long burst stimuli were applied at 800/min frequency to induce atrial fibrillation and the incidence of AF, the duration of AF episodes were measured before commencement of oral drug therapy and then after the initiation of therapy every 4 days.

conscious rats = system: conscious rats
Description: The present experiments were performed on male, Sprague-Dawley CFY rats weighing 260-300 g. During a preliminary open-chest surgery we applied a loose silk loop around the left main coronary artery, and then the chest was closed (Leprán et al., 1983). Seven-eight days after the preliminary surgery—after complete recovery and healing—the loose silk loop was tightened to occlude the coronary artery in conscious, freely moving animals. During the first 15 min of myocardial infarction a bipolar ECG was recorded continuously (PowerLab 8SP, ADInstruments, Great Britain).
We followed the survival rate during the acute phase (first 15 min) and during the subsequent 16 hours after coronary artery occlusion. The incidence and duration of arrhythmias in the acute phase were evaluated according to the Lambeth Conventions (Walker et al., 1988), i.e. ventricular fibrillation, ventricular tachycardia, and other types of arrhythmias, including ventricular extrasystoles, bigeminy, and salvos. The size of myocardial infarction was measured in the animals surviving for 16 hours after coronary artery occlusion using nitrotetrazolium-blue dye staining.
Long-term oral pretreatment was applied for 1 month before the coronary artery occlusion. […] Control animals were given the vehicle in a volume of 5 ml/kg.

[2] = system: cardiac thyroid receptors; details: reported earlier (van Beeren et al, 1995; Latham et al, 1987); cited from earlier work
isolated rabbit heart = experiment: Atrial fibrillation induced by rapid atrial pacing with carbachol in isolated (Langendorff) rabbit heart; parameters: species or system New Zealand white rabbits
Description: Hearts from New Zealand white rabbits (1-2 kg) were used in the experiments. Animals were treated with an intravenous injection of 400 IU/kg heparin and anaesthetized by intravenous infusion of 30 mg/kg pentobarbital and sacrificed by cervical dislocation. The protocols were approved by the Department of Animal Health and Food Control of the Ministry of Agriculture and Rural Development, Hungary (XIII/01031/000/2008) and by the Ethical Committee for the Protection of Animals in Research of the University of Szeged, Szeged, Hungary (approval number I-74-125-2007). After median thoracotomy the heart was quickly removed and placed into cold (4° C.) Krebs-Henseleit solution (KHS) containing (in mM): NaCl 118, KCl 4.3, KH2PO4 1.2, MgSO4 1.2, Na pyruvate 5, NaHCO3 25, glucose 11, CaCl2 1.8, pH 7.4 when gassed with a mixture of 95% O2 and 5% CO2. The heart was then mounted on a modified Langendorff apparatus and perfused retrogradely through the aorta with oxygenated KHS warmed to 37° C. The pulmonary vein was also cannulated in order to perfuse the left atrial chamber. In order to record the optical monophasic action potentials the hearts were also loaded with the voltage sensitive fluorescent dye di-4 Anneps for 5 min. To stop the cardiac contractions and avoid motion artefacts during the optical image acquisition the electrical and mechanical activity of the heart was uncoupled by adding 11 mM 2,3-butanedione monoxime to the perfusate.
Epicardial electrograms from the left atrial and left ventricular wall were amplified with a surface electrode amplifier (Experimetria, Hungary) and monitored using a high frequency oscilloscope (Leader Electronics Corporation, Korea). […] The high resolution optical action potential mapping system consisted of a light-emitting diode (LED) lamp as an excitation light source at a wavelength of 527 nm and a high-resolution, high-speed metal-oxide-semiconductor (CMOS) camera (MiCam02, type MCO2C4) equipped with an 580 nm long pass filter for acquiring the fluorescence images from the surface of the heart at a frequency of 833 Hz. Fluorescence images were analyzed using the Brainvison Analyze software (Brainvision Inc Tokyo, Japan).
After allowing the hearts to stabilize for 15 min, acute episodes of atrial fibrillation were induced with rapid electrical stimulation of the atria at a rate of 50 Hz for 10 sec in the presence of 1 μM carbachol in the perfusate. […] All data are expressed as mean±SEM.
All chemicals were purchased from Sigma-Aldrich (St. Louis, Mo., USA), except DEA and di-4 Anneps. Di-4 Anneps was purchased from Molecular Probes Inc. (Eugene, Oreg., USA). […]

[3] = system: dog atrial and ventricular tissue; experiment: Atrial and ventricular action potential parameters after chronic oral treatment of non-instrumented dogs; assay type: in vivo, Beagle dogs; details: 500 ms cycle length, 4-week oral DEA 30 or AMIO 45 mg/kg/day
rats = experiment: Chronic 28-day non-GLP toxicology in rats
dogs = details: 4 weeks oral AMIO 45 mg/kg (from 243.2 ms, SE=9.7 after) or DEA 30 mg/kg (from 243.6 ms, SE=7.3 after)

## CCCCc1oc2ccccc2c1C(=O)c1cc(I)c(OCCNCC)c(I)c1 [DEA, (2-Butylbenzofuran-3-yl)-[4-(2-ethylaminoethoxy)-3,5-diiodophenyl]methanone]
[1]; oral DEA 25 mg/kg/day, Control (before) 1 122.6, 1 505.8, 6 739.1
  AF duration (s), Following 4-week treatment, individual animals: 21.6 s and 44 s and 1.9 s
[1]; oral DEA 25 mg/kg/day, Control (before) 3.05, 3.17, 3.82
  Lg AF duration, Following 4-week treatment, individual animals: 1.33 and 1.64 and 0.28
[1]; oral DEA 25 mg/kg/day, animals 2010/06, 2010/11, 2010/14, Control (before) <80 in all
  ERP, Following 4-week treatment, individual animals: 80 ms (2×) and <80 ms
[1]; oral DEA 25 mg/kg/day, burst-induced AF, Control (before) 60%, 50%, 27%
  Incidence of AF, Following 4-week treatment, individual animals: 10% (2×) and 27%
[1]; oral DEA 25 mg/kg/day, n=3, Control (before) 3.35 ± 0.24
  Lg AF duration, Following 4-week treatment, Mean ± SE: 1.08 ± 0.41
[1]; oral DEA 25 mg/kg/day, n=3, Control (before) 45.7 ± 9.77
  Incidence of AF, Following 4-week treatment, Mean ± SE: 15.7 ± 5.67%
[1]; oral DEA 25 mg/kg/day, n=3, Control (before) 3122 ± 1811.7
  AF duration (s), Following 4-week treatment, Mean ± SE: 22.5 ± 12.16 s
[1]; three animals, 4-week oral treatment, DEA 25, AMIO 50 mg/kg/day, accompanied by prolongation of the ERP
  Incidence and duration of atrial fibrillation: markedly and significantly decreased
Conscious rats; 1 month oral pretreatment
  Death due to the 1 month treatment: No death occurred
  Survival rate during the acute phase of experimental myocardial infarction: significantly improved
Conscious rats; 1 month oral pretreatment, AMIO 30 or 100, DEA 15 or 50 mg/kg/day
  Behavioral changes, body weight increments: Neither AMIO nor DEA produced any behavioral changes of the animals, or in body weight increments
Conscious rats; first 15 min after coronary artery occlusion, 1 month oral AMIO 100 or DEA 50 mg/kg/day, control 4.77±0.33
  Arrhythmia score: 3.27±0.56
Conscious rats; larger doses (AMIO 100, DEA 50 mg/kg/day), after coronary artery occlusion
  Incidence of ventricular fibrillation: significantly decreased
[2]
  Affinity for cardiac thyroid receptors compared to AMIO: higher affinity
Isolated rabbit heart; 1 μM carbachol, 50 Hz pacing 10 sec, DEA 5 μM, before treatment 5 of 5 hearts
  Occurrence of atrial fibrillation, After treatment (number of hearts): 0 of 5 and 0
Isolated rabbit heart; 1 μM carbachol, DEA 5 μM, Control 77
  Occurrence of atrial fibrillation after treatment, %: 0%
Isolated rabbit heart; 1 μM carbachol, DEA 5 μM, mean±SEM, before treatment 110.2 ± 37.1
  Average duration of atrial fibrillation episodes, After treatment: 0 ± 0
Isolated rabbit heart; second trial
  Occurrence of atrial fibrillation: completely prevented the occurrence of atrial fibrillation
[3]; n = 3, CONTROL 249.7 ± 52.7
  Vmax (V/s), Dog atrium: 231.5 ± 45.4 V/s
[3]; n = 4, CONTROL 123.9 ± 9.6
  APD90 (ms), Dog atrium: 156.6 ± 12.6 ms
rats; 28-day oral AMIO 200 mg/kg/day or DEA 100 mg/kg/day, plasma (DEA: plasma or cardiac tissue)
  Detection of the administered drug 14 days after the completion of administration: not detected in plasma or cardiac tissue samples
rats; 28-day oral study
  Elimination of DEA compared to AMIO: significantly faster
dogs
  ECG QTc interval after treatment: 266.9 ms
